According to patent publication US20250073226A1, “USE OF OPIOID FOR TREATMENT OF AUTISM SPECTRUM DISORDERS” (priority 2021, published 2025):

Assays:
Assay type in all cases: in vivo, mice
VPA model = experiment: Confirmation of continuous effect: social behavior in VPA model 3 or 12 hours after administration; conditions: 0.003 mg/kg s.c.
Procedure: Saline or buprenorphine was subcutaneously administered to the VPA model in the same manner as in Example 1, and the amount of social behavior for 20 minutes from 3 hour after administration or for 20 minutes from 12 hours after administration was quantified. The improvement effect in social impairment by administration of 0.003 mg/kg of buprenorphine was observed even 3 hours and 12 hours after administration.

nucleus accumbens (NAc) = experiment: Brain activation: c-Fos positive cells in nucleus accumbens; conditions: VPA model, 1 hour after administration
Procedure: (§1) Saline or buprenorphine at 0.0003, 0.003, or 0.03 mg/kg was administered to the VPA model, and 1 hour after that, the brain was extracted and immunostained with an anti-c-Fos antibody, and the number of c-Fos positive cells in nucleus accumens (NAc) and medial prefrontal cortex, which are brain regions known to promote social behavior, and dorsomedial periaqueductal gray (dmPAG), which is a brain region known to reduce social behavior and to be involved in the expression of analgesic effects, was quantified as the number of activated nerve cells.

[1] = test system: dorsomedial periaqueductal gray (dmPAG); experiment: Brain activation: c-Fos positive cells in dorsomedial periaqueductal gray; conditions: VPA model, 1 hour after administration
Procedure: as §1

CO[C@]12CC[C@@]3(C[C@@H]1[C@](C)(O)C(C)(C)C)[C@H]1Cc4ccc(O)c5c4[C@@]3(CCN1CC1CC1)[C@H]2O5 [buprenorphine, 21-cyclopropyl-7-a-[(S)-1-hydroxy-1,2,2-trimethylpropyl]-6,14-endo-ethano-6,7,8,14 tetrahydrooripavine]
improvement effect in social impairment 3 hours after administration (VPA model; 20 minutes from 3 hour after administration): observed | improvement effect in social impairment 12 hours after administration (VPA model; 20 minutes from 12 hours after administration): observed | number of activated nerve cells (c-Fos positive cells) (nucleus accumbens (NAc); 0.003 mg/kg): significantly increased | number of activated nerve cells (c-Fos positive cells) (nucleus accumbens (NAc); 0.03 mg/kg): significantly increased | number of activated nerve cells (c-Fos positive cells) ([1]; 0.003 mg/kg): no change | number of activated nerve cells (c-Fos positive cells) ([1]; 0.03 mg/kg): significantly increased
